Reference: article PMC7660650, “Chemical Starting Matter for HNF4α Ligand Discovery and Chemogenomics” (International Journal of Molecular Sciences, 2020)
Several values for one entry are separate records, joined by “and”; a condition that tells them apart may be missing. Equal values may be shown once.

The molecules below were run against T1, Gal4-HNF4α (human HNF4α LBD) (Homo sapiens, UniProt P41235) (assay: Hybrid Gal4-HNF4α reporter gene assay in transiently transfected HEK293T cells). Conditions: Table S1, primary screening, 50 µM.
T1 construct: uniprot entry: P41235-1, residues 142-377; expressed in transfected cells; host or cells: HEK293T
T1 sequence (P41235 142-377): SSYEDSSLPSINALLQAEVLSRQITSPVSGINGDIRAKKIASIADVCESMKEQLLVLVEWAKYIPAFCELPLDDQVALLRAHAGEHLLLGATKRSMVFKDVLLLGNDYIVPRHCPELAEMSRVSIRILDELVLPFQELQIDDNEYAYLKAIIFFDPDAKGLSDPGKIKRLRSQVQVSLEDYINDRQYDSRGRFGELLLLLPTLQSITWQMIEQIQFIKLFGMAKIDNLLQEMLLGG
Type: cell-based
`CCOc1ccccc1O` [Prestw-Frag-2995, CCOc1ccccc1O] was tested, and the “HNF4a-screening_activity_(mean_of_n=2)” value was 0.8201. For `O=C(O)C(CO)c1ccccc1` (centres unmarked) [Prestw-Frag-1686, OCC(C(O)=O)c1ccccc1], the “HNF4a-screening_activity_(mean_of_n=2)” value was 1.109. With `CC(C)(C)NCC(O)COc1ccccc1C1CCCC1` (centres unmarked) [Prestw-Frag-0674, CC(C)(C)NCC(O)COc1ccccc1C1CCCC1] the “HNF4a-screening_activity_(mean_of_n=2)” value was 1.434. With `COc1ccc2c(c1)CCCC2` [Prestw-Frag-3188, COc1ccc2CCCCc2c1] the “HNF4a-screening_activity_(mean_of_n=2)” value was 0.8877. In the case of `CC(C)(CN)c1ccccc1` [Prestw-Frag-3733, CC(C)(CN)c1ccccc1], the “HNF4a-screening_activity_(mean_of_n=2)” value is reported as 1.132. `CC(N)COc1ccccc1` (centres unmarked) [Prestw-Frag-1691, CC(N)COc1ccccc1] was tested, and the “HNF4a-screening_activity_(mean_of_n=2)” value was 0.7151 and 1.122. In the case of `c1cncc(CN2CCNCC2)c1` [Prestw-Frag-3722, C(N1CCNCC1)c1cccnc1], the “HNF4a-screening_activity_(mean_of_n=2)” value is reported as 0.9979. With `CCN(CC)CCOc1ccc(C(C)=O)cc1` [Prestw-Frag-2005, CCN(CC)CCOc1ccc(cc1)C(C)=O] the “HNF4a-screening_activity_(mean_of_n=2)” value was 1.006. For `C#Cc1cccc(N)c1` [Prestw-Frag-3669, Nc1cccc(c1)C#C], the “HNF4a-screening_activity_(mean_of_n=2)” value was 1.159. In the case of `OCc1ccc(F)cc1F` [Prestw-Frag-3100, OCc1ccc(F)cc1F], the “HNF4a-screening_activity_(mean_of_n=2)” value is reported as 0.9757. For `CC(=O)c1ccc2c(c1)OCO2` [Prestw-Frag-3686, CC(=O)c1ccc2OCOc2c1], the “HNF4a-screening_activity_(mean_of_n=2)” value was 0.9343. With `COC(=O)C(O)(c1ccccc1)C1CCCC1` (centres unmarked) [Prestw-Frag-2484, COC(=O)C(O)(C1CCCC1)c1ccccc1] the “HNF4a-screening_activity_(mean_of_n=2)” value was 1.411. `COC(=O)C(O)(c1ccccc1)C1CCCCC1` (centres unmarked) [Prestw-Frag-1867, COC(=O)C(O)(C1CCCCC1)c1ccccc1] was tested, and the “HNF4a-screening_activity_(mean_of_n=2)” value was 1.91 and 1.155. `Cn1c(=O)[nH]c2nc[nH]c2c1=O` [Prestw-Frag-1138, Cn1c(=O)[nH]c2nc[nH]c2c1=O] was tested, and the “HNF4a-screening_activity_(mean_of_n=2)” value was 0.9492. In the case of `NC(=O)COc1ccccc1` [Prestw-Frag-2578, NC(=O)COc1ccccc1], the “HNF4a-screening_activity_(mean_of_n=2)” value is reported as 1.034. In the case of `OC(c1ccccc1)(c1ccccc1)C1CCNCC1` [Prestw-Frag-1654, OC(C1CCNCC1)(c1ccccc1)c1ccccc1], the “HNF4a-screening_activity_(mean_of_n=2)” value is reported as 1.142 and 1.152. In the case of `Cc1n[nH]c(C)c1N` [Prestw-Frag-3724, Cc1n[nH]c(C)c1N], the “HNF4a-screening_activity_(mean_of_n=2)” value is reported as 0.9198. For `NCC(CC(=O)O)c1ccccc1` (centres unmarked) [Prestw-Frag-1125, NCC(CC(O)=O)c1ccccc1], the “HNF4a-screening_activity_(mean_of_n=2)” value was 0.6886. For `Nc1cccc(O)c1` [Prestw-Frag-2826, Nc1cccc(O)c1], the “HNF4a-screening_activity_(mean_of_n=2)” value was 1.072. `CCC(=O)Nc1ncnc2[nH]cnc12` [Prestw-Frag-1047, CCC(=O)Nc1ncnc2[nH]cnc12] was tested, and the “HNF4a-screening_activity_(mean_of_n=2)” value was 0.8266 and 1.023. In the case of `O=C1CCCc2[nH]ccc21` [Prestw-Frag-2675, O=C1CCCc2[nH]ccc12], the “HNF4a-screening_activity_(mean_of_n=2)” value is reported as 1.012. With `COc1ccc(CC(C)N)cc1` (centres unmarked) [Prestw-Frag-3342, COc1ccc(CC(C)N)cc1] the “HNF4a-screening_activity_(mean_of_n=2)” value was 1.446. In the case of `Nc1cnc2ccccc2n1` [Prestw-Frag-3679, Nc1cnc2ccccc2n1], the “HNF4a-screening_activity_(mean_of_n=2)” value is reported as 0.8882. In the case of `CCN1CCCC1CN` (centres unmarked) [Prestw-Frag-3671, CCN1CCCC1CN], the “HNF4a-screening_activity_(mean_of_n=2)” value is reported as 1.171. `COc1ccc(C(=O)O)cc1N1CCCC1` [Prestw-Frag-1313, COc1ccc(cc1N1CCCC1)C(O)=O] was tested, and the “HNF4a-screening_activity_(mean_of_n=2)” value was 1.093. In the case of `O=C1c2ccc(Cl)cc2CCc2cccnc21` [Prestw-Frag-3073, Clc1ccc2c(CCc3cccnc3C2=O)c1], the “HNF4a-screening_activity_(mean_of_n=2)” value is reported as 0.9858. With `Nc1ccn([C@H]2C[C@H](O)[C@@H](CO)O2)c(=O)n1` [Prestw-Frag-3264, Nc1ccn([C@H]2C[C@H](O)[C@@H](CO)O2)c(=O)n1] the “HNF4a-screening_activity_(mean_of_n=2)” value was 1.086. In the case of `ClC1(Cl)CC1c1ccccc1` (centres unmarked) [Prestw-Frag-2566, ClC1(Cl)CC1c1ccccc1], the “HNF4a-screening_activity_(mean_of_n=2)” value is reported as 1.078. In the case of `O=c1[nH]nc(Cc2ccccc2)c2ccccc12` [Prestw-Frag-1561, O=c1[nH]nc(Cc2ccccc2)c2ccccc12], the “HNF4a-screening_activity_(mean_of_n=2)” value is reported as 1.103. In the case of `CN1CCc2cccc(N)c2C1` [Prestw-Frag-1553, CN1CCc2cccc(N)c2C1], the “HNF4a-screening_activity_(mean_of_n=2)” value is reported as 1.039 and 1.009. In the case of `COc1ccc2cc[nH]c2c1` [Prestw-Frag-1372, COc1ccc2cc[nH]c2c1], the “HNF4a-screening_activity_(mean_of_n=2)” value is reported as 1.02. `O=C(O)CC1CCCCC1` [Prestw-Frag-3668, OC(=O)CC1CCCCC1] was tested, and the “HNF4a-screening_activity_(mean_of_n=2)” value was 0.9215. With `c1cc(N2CCNCC2)ncn1` [Prestw-Frag-3729, C1CN(CCN1)c1ccncn1] the “HNF4a-screening_activity_(mean_of_n=2)” value was 1.017. With `CC(=O)c1ccc(O)cc1O` [Prestw-Frag-2506, CC(=O)c1ccc(O)cc1O] the “HNF4a-screening_activity_(mean_of_n=2)” value was 0.9153. For `O=C(c1ccccc1)c1ccc(Br)cc1` [Prestw-Frag-2912, Brc1ccc(cc1)C(=O)c1ccccc1], the “HNF4a-screening_activity_(mean_of_n=2)” value was 0.975. In the case of `CC(=O)c1ccc(N2CCNCC2)c(F)c1` [Prestw-Frag-1094, CC(=O)c1ccc(N2CCNCC2)c(F)c1], the “HNF4a-screening_activity_(mean_of_n=2)” value is reported as 1.1 and 1.293. For `COc1ccccc1N1CCN(CCCN)CC1` [Prestw-Frag-2569, COc1ccccc1N1CCN(CCCN)CC1], the “HNF4a-screening_activity_(mean_of_n=2)” value was 1.212. With `Cc1ncsc1CCO` [Prestw-Frag-1098, Cc1ncsc1CCO] the “HNF4a-screening_activity_(mean_of_n=2)” value was 1.111. With `c1cc2c(s1)CCNC2` [Prestw-Frag-1694, C1Cc2sccc2CN1] the “HNF4a-screening_activity_(mean_of_n=2)” value was 1.028 and 1.127. With `OC(c1ccc(Cl)cc1)c1ccccn1` (centres unmarked) [Prestw-Frag-1346, OC(c1ccc(Cl)cc1)c1ccccn1] the “HNF4a-screening_activity_(mean_of_n=2)” value was 0.8912. In the case of `O=C(OC1CCCCC1)c1ccccc1O` [Prestw-Frag-1382, Oc1ccccc1C(=O)OC1CCCCC1], the “HNF4a-screening_activity_(mean_of_n=2)” value is reported as 0.9579 and 1.189. With `Cc1cn(-c2cc(N)cc(C(F)(F)F)c2)cn1` [Prestw-Frag-3241, Cc1cn(cn1)-c1cc(N)cc(c1)C(F)(F)F] the “HNF4a-screening_activity_(mean_of_n=2)” value was 1.061. For `O=C(CCN1CCCCC1)c1ccccc1` [Prestw-Frag-1953, O=C(CCN1CCCCC1)c1ccccc1], the “HNF4a-screening_activity_(mean_of_n=2)” value was 0.8568. For `NCc1ncc[nH]1` [Prestw-Frag-3689, NCc1ncc[nH]1], the “HNF4a-screening_activity_(mean_of_n=2)” value was 0.8561. `O=C1CC2(CCCC2)CC(=O)N1` [Prestw-Frag-3680, O=C1CC2(CCCC2)CC(=O)N1] was tested, and the “HNF4a-screening_activity_(mean_of_n=2)” value was 0.8965. In the case of `COc1ccc(O)cc1O` [Prestw-Frag-2499, COc1ccc(O)cc1O], the “HNF4a-screening_activity_(mean_of_n=2)” value is reported as 1.183. For `COc1ccc2[nH]cc(CCN)c2c1` [Prestw-Frag-1480, COc1ccc2[nH]cc(CCN)c2c1], the “HNF4a-screening_activity_(mean_of_n=2)” value was 1.025 and 1.119. In the case of `NCCOC(c1ccc(F)cc1)c1ccc(F)cc1` [Prestw-Frag-1925, NCCOC(c1ccc(F)cc1)c1ccc(F)cc1], the “HNF4a-screening_activity_(mean_of_n=2)” value is reported as 1.095 and 1.195. In the case of `OCCc1ccc(Cl)cc1` [Prestw-Frag-3062, OCCc1ccc(Cl)cc1], the “HNF4a-screening_activity_(mean_of_n=2)” value is reported as 0.9659. In the case of `Oc1ccc2cc[nH]c2c1` [Prestw-Frag-1374, Oc1ccc2cc[nH]c2c1], the “HNF4a-screening_activity_(mean_of_n=2)” value is reported as 1.128. `CCN(CCCCO)C(C)Cc1ccc(OC)cc1` (centres unmarked) [Prestw-Frag-2440, CCN(CCCCO)C(C)Cc1ccc(OC)cc1] was tested, and the “HNF4a-screening_activity_(mean_of_n=2)” value was 1.361. In the case of `CC(C(=O)O)c1cccc(F)c1` (centres unmarked) [Prestw-Frag-3706, CC(C(O)=O)c1cccc(F)c1], the “HNF4a-screening_activity_(mean_of_n=2)” value is reported as 1.072. For `COc1cc(N)ncn1` [Prestw-Frag-1154, COc1cc(N)ncn1], the “HNF4a-screening_activity_(mean_of_n=2)” value was 1.214.
